According to the kinase profiling compilation of Christmann-Franck et al. (2016):
pIC50, pKd: −log10 of the molar value. Each block holds one compound with its values, some of them ahead of it.

What was measured:
TTK (human) [1] = molecular target: TTK (human) (UniProt P33981); assay: SelectScreen, TR FRET
PLK1 (human) = PLK1 (human) (UniProt P53350); assay: KINOMEscan competition binding; conditions: compound 10.0 µM
GAK (human) = GAK (human) (UniProt O14976); assay: KINOMEscan competition binding; conditions: compound 10.0 µM
PLK4 (human) = PLK4 (human) (UniProt O00444); assay: KINOMEscan competition binding; conditions: compound 10.0 µM
RAF1 (human) = RAF1 (human) (UniProt P04049); assay: KINOMEscan competition binding; conditions: compound 10.0 µM
STK33 (human) = STK33 (human) (UniProt Q9BYT3); assay: KINOMEscan competition binding; conditions: compound 10.0 µM
PTK2 (human) = PTK2 (human) (UniProt Q05397); assay: KINOMEscan competition binding; conditions: compound 10.0 µM
TTK (human) [2] = molecular target: TTK (human) (UniProt P33981); assay: KINOMEscan competition binding; conditions: for kinase still bound, per cent of control: compound 10.0 µM
PLK3 (human) = PLK3 (human) (UniProt Q9H4B4); assay: KINOMEscan competition binding; conditions: compound 10.0 µM
STK17A (human) = STK17A (human) (UniProt Q9UEE5); assay: KINOMEscan competition binding; conditions: compound 10.0 µM
MAP2K3 (human) = MAP2K3 (human) (UniProt P46734); assay: KINOMEscan competition binding; conditions: compound 10.0 µM
TAOK3 (human) = TAOK3 (human) (UniProt Q9H2K8); assay: KINOMEscan competition binding; conditions: compound 10.0 µM
MAPK10 (human) = MAPK10 (human) (UniProt P53779); assay: KINOMEscan competition binding; conditions: compound 10.0 µM
STK25 (human) = STK25 (human) (UniProt O00506); assay: KINOMEscan competition binding; conditions: compound 10.0 µM
TAOK1 (human) = TAOK1 (human) (UniProt Q7L7X3); assay: KINOMEscan competition binding; conditions: compound 10.0 µM
RPS6KA1 KD2 (human) = RPS6KA1 KD2 (human) (UniProt Q15418); assay: KINOMEscan competition binding; conditions: compound 10.0 µM
PIM3 (human) = PIM3 (human) (UniProt Q86V86); assay: KINOMEscan competition binding; conditions: compound 10.0 µM
PAK7 (human) = PAK7 (human) (UniProt Q9P286); assay: KINOMEscan competition binding; conditions: compound 10.0 µM
MAPK15 (human) = MAPK15 (human) (UniProt Q8TD08); assay: KINOMEscan competition binding; conditions: compound 10.0 µM
MAPK14 (human) = MAPK14 (human) (UniProt Q16539); assay: KINOMEscan competition binding; conditions: compound 10.0 µM
MAPK9 (human) = MAPK9 (human) (UniProt P45984); assay: KINOMEscan competition binding; conditions: compound 10.0 µM
PAK2 (human) = PAK2 (human) (UniProt Q13177); assay: KINOMEscan competition binding; conditions: compound 10.0 µM
TLK2 (human) = TLK2 (human) (UniProt Q86UE8); assay: KINOMEscan competition binding; conditions: compound 10.0 µM
PIM1 (human) = PIM1 (human) (UniProt P11309); assay: KINOMEscan competition binding; conditions: compound 10.0 µM
RPS6KA6 KD2 (human) = RPS6KA6 KD2 (human) (UniProt Q9UK32); assay: KINOMEscan competition binding; conditions: compound 10.0 µM
MAPK8 (human) = MAPK8 (human) (UniProt P45983); assay: KINOMEscan competition binding; conditions: compound 10.0 µM
CLK2 (human) = CLK2 (human) (UniProt P49760); assay: KINOMEscan competition binding; conditions: compound 10.0 µM
ZAP70 (human) = ZAP70 (human) (UniProt P43403); assay: KINOMEscan competition binding; conditions: compound 10.0 µM
MYLK4 (human) = MYLK4 (human) (UniProt Q86YV6); assay: KINOMEscan competition binding; conditions: compound 10.0 µM
RPS6KA2 KD2 (human) = RPS6KA2 KD2 (human) (UniProt Q15349); assay: KINOMEscan competition binding; conditions: compound 10.0 µM
AAK1 (human) = AAK1 (human) (UniProt Q2M2I8); assay: KINOMEscan competition binding; conditions: compound 10.0 µM
CDK16 (human) = CDK16 (human) (UniProt Q00536); assay: KINOMEscan competition binding; conditions: compound 10.0 µM
HIPK1 (human) = HIPK1 (human) (UniProt Q86Z02); assay: KINOMEscan competition binding; conditions: compound 10.0 µM
CDK7 (human) = CDK7 (human) (UniProt P50613); assay: KINOMEscan competition binding; conditions: compound 10.0 µM
EIF2AK2 (human) = EIF2AK2 (human) (UniProt P19525); assay: KINOMEscan competition binding; conditions: compound 10.0 µM
PIM2 (human) = PIM2 (human) (UniProt Q9P1W9); assay: KINOMEscan competition binding; conditions: compound 10.0 µM
MYLK (human) = MYLK (human) (UniProt Q15746); assay: KINOMEscan competition binding; conditions: compound 10.0 µM
RPS6KA4 KD2 (human) = RPS6KA4 KD2 (human) (UniProt O75676); assay: KINOMEscan competition binding; conditions: compound 10.0 µM

Chain of TTK (human) (P33981 whole entry, looked up): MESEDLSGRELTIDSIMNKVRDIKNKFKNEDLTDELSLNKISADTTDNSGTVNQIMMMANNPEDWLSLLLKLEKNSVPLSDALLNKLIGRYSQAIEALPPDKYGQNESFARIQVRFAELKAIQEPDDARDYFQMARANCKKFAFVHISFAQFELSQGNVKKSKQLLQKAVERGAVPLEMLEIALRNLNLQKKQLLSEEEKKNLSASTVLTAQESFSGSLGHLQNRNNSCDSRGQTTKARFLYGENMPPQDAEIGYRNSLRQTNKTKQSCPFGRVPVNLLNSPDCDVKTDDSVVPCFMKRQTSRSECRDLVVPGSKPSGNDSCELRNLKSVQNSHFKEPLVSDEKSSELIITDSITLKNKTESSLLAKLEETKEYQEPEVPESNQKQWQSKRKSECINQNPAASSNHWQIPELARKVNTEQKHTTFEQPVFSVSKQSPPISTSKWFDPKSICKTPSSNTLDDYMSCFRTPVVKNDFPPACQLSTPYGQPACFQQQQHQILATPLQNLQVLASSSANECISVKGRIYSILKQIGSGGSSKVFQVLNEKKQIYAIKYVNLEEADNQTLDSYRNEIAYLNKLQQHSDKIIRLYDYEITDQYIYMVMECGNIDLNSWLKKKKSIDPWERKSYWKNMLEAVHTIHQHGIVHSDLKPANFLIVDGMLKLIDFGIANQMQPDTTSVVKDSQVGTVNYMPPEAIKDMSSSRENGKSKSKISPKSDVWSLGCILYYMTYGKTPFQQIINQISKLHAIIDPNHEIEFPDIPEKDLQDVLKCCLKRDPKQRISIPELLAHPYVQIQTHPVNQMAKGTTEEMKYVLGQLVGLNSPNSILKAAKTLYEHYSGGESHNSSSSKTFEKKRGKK
Chain of GAK (human) (O14976 whole entry, looked up): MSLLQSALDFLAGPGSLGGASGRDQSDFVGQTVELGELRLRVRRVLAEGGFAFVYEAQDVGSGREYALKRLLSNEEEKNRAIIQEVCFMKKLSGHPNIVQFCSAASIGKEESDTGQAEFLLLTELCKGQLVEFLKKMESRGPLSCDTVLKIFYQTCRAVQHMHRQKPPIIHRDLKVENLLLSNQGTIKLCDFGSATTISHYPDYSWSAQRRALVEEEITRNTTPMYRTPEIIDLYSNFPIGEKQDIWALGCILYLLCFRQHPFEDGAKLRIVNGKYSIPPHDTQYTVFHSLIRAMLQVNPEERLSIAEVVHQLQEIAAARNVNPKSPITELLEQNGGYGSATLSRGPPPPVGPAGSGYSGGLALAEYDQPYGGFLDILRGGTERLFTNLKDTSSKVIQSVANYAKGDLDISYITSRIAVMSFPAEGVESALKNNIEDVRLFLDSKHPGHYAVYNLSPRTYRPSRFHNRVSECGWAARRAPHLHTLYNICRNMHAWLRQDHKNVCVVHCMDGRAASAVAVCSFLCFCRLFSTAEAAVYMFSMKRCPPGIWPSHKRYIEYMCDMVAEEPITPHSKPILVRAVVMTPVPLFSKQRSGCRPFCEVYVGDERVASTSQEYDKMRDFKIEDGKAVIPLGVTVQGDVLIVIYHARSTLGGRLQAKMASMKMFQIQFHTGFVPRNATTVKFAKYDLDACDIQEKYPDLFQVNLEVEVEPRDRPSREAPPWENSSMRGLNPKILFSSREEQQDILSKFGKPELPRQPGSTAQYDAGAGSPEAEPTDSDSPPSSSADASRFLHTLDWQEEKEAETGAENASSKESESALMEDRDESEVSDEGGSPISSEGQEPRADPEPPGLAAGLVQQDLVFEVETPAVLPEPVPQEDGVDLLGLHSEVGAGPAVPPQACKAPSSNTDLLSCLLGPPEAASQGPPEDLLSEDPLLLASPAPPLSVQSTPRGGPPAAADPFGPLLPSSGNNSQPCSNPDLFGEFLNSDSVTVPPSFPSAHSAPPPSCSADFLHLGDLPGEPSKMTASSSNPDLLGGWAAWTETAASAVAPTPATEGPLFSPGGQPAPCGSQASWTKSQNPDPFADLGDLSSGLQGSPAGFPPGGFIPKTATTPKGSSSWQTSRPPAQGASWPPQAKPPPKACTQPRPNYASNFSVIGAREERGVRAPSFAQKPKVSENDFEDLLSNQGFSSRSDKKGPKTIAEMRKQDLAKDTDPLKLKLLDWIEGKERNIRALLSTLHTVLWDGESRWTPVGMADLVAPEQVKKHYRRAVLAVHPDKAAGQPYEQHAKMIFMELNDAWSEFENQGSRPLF
Chain of PLK4 (human) (O00444 whole entry, looked up): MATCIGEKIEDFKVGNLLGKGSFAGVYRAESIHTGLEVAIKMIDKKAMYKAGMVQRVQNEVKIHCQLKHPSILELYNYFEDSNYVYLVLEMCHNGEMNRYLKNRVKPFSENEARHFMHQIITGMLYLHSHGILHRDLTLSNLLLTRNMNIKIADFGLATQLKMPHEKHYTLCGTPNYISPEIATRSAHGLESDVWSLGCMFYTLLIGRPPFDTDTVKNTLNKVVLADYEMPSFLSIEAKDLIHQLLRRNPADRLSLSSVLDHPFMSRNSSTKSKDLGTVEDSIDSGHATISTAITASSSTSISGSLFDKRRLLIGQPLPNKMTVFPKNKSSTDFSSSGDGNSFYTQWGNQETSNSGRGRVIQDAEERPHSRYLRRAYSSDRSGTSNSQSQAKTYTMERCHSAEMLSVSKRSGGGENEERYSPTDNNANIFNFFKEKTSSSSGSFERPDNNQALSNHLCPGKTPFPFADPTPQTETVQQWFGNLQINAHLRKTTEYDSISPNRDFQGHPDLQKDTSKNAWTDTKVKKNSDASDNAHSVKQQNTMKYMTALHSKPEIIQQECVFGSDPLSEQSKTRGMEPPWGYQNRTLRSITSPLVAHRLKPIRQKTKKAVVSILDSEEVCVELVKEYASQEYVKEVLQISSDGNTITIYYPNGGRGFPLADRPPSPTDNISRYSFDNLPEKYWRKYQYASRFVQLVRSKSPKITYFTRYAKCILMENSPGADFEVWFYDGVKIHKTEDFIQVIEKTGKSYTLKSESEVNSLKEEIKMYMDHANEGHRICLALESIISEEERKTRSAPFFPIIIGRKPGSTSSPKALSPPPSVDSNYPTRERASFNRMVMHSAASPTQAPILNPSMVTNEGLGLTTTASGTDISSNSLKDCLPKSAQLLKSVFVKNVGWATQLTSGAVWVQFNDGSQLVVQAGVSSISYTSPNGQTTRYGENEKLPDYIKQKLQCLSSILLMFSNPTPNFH
Chain of RAF1 (human) (P04049 whole entry, looked up): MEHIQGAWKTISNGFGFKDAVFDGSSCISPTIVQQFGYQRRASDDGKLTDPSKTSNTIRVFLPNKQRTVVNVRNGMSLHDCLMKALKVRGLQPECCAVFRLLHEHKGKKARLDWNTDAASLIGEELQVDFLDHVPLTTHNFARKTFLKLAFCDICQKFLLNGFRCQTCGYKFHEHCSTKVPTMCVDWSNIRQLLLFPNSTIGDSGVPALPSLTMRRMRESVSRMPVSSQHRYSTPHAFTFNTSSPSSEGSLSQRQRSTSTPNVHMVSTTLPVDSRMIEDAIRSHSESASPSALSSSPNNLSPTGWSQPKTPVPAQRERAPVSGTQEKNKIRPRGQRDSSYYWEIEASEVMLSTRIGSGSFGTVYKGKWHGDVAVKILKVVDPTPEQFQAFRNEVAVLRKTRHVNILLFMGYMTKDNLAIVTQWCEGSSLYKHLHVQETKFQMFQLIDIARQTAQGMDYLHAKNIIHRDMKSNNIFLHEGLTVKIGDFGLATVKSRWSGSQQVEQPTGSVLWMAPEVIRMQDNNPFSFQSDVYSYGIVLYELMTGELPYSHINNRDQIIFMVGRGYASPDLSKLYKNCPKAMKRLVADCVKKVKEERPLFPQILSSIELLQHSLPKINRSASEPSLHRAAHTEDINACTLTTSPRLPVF
Chain of PLK1 (human) (P53350 whole entry, looked up): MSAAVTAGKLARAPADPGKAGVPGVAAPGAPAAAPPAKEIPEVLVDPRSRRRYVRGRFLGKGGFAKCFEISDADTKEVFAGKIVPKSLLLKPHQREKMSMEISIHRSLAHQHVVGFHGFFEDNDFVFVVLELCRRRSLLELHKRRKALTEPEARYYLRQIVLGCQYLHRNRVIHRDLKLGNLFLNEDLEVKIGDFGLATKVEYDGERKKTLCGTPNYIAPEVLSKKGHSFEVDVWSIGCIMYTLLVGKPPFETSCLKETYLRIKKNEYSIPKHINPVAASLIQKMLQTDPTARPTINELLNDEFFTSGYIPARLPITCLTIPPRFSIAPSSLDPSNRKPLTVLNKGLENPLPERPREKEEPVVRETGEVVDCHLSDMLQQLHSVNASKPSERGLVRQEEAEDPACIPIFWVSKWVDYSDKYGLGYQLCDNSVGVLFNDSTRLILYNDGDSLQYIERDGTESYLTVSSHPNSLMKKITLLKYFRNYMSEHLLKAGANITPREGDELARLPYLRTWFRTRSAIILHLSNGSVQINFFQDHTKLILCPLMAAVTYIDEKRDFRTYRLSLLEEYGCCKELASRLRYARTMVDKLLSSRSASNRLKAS
Chain of PLK3 (human) (Q9H4B4 whole entry, looked up): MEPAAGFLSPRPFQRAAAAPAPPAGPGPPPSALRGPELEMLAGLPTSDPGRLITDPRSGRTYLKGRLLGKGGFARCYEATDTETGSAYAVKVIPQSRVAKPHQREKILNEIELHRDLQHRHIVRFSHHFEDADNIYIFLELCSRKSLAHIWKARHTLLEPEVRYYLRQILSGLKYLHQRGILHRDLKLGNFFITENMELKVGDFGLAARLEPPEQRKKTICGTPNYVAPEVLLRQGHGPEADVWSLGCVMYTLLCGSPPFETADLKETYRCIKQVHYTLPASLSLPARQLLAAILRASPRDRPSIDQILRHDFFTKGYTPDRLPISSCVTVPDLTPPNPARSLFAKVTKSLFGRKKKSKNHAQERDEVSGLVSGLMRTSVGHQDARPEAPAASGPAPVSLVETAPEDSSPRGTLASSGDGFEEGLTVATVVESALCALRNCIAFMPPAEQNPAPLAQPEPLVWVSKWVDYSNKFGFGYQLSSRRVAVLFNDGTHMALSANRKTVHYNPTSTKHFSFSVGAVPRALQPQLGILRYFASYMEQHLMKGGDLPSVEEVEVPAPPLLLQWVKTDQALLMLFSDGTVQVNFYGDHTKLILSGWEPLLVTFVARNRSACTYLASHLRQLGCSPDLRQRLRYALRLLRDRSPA

pIC50 (TTK (human) [1]): 5.86 | kinase still bound, per cent of control (PLK1 (human)): 7.4% | kinase still bound, per cent of control (GAK (human)): 2.4% | kinase still bound, per cent of control (PLK4 (human)): 14% | kinase still bound, per cent of control (RAF1 (human)): 0% | kinase still bound, per cent of control (STK33 (human)): 17% | kinase still bound, per cent of control (PTK2 (human)): 17% | pKd (TTK (human) [2]): 6.80 | kinase still bound, per cent of control (TTK (human) [2]): 2.2% | kinase still bound, per cent of control (PLK3 (human)): 0%
SMILES: COc1cc(N(C)CCO)ccc1Nc1ncc2c(n1)N(C1CCCC1)CCC(=O)N2C

kinase still bound, per cent of control (STK17A (human)): 2.5% | kinase still bound, per cent of control (MAP2K3 (human)): 14% | kinase still bound, per cent of control (TAOK3 (human)): 24% | kinase still bound, per cent of control (MAPK10 (human)): 22% | kinase still bound, per cent of control (STK25 (human)): 32% | kinase still bound, per cent of control (TAOK1 (human)): 3.6% | kinase still bound, per cent of control (GAK (human)): 6.7% | kinase still bound, per cent of control (RPS6KA1 KD2 (human)): 12% | kinase still bound, per cent of control (PIM3 (human)): 1.8% | kinase still bound, per cent of control (PAK7 (human)): 28% | kinase still bound, per cent of control (MAPK14 (human)): 19% | kinase still bound, per cent of control (MAPK9 (human)): 6% | kinase still bound, per cent of control (PAK2 (human)): 34% | kinase still bound, per cent of control (PLK4 (human)): 0.05% | kinase still bound, per cent of control (TLK2 (human)): 28% | kinase still bound, per cent of control (PIM1 (human)): 1.6% | kinase still bound, per cent of control (RPS6KA6 KD2 (human)): 18% | kinase still bound, per cent of control (MAPK8 (human)): 31% | kinase still bound, per cent of control (CLK2 (human)): 9.8% | kinase still bound, per cent of control (ZAP70 (human)): 32% | kinase still bound, per cent of control (MYLK4 (human)): 19% | kinase still bound, per cent of control (RPS6KA2 KD2 (human)): 5.3% | kinase still bound, per cent of control (TTK (human) [2]): 16% | kinase still bound, per cent of control (AAK1 (human)): 14% | kinase still bound, per cent of control (CDK16 (human)): 0.1% | kinase still bound, per cent of control (HIPK1 (human)): 6.5% | kinase still bound, per cent of control (CDK7 (human)): 1.4% | kinase still bound, per cent of control (EIF2AK2 (human)): 17% | kinase still bound, per cent of control (PIM2 (human)): 3%
SMILES: CSC1=NC(=O)/C(=C/c2ccc(-c3ccc(S(N)(=O)=O)cc3)o2)S1
kinase still bound, per cent of control (MAPK15 (human)): 29%

kinase still bound, per cent of control (PLK1 (human)): 4.4% | kinase still bound, per cent of control (GAK (human)): 27% | kinase still bound, per cent of control (RAF1 (human)): 0% | kinase still bound, per cent of control (MYLK (human)): 25% | kinase still bound, per cent of control (RPS6KA4 KD2 (human)): 1.9% | kinase still bound, per cent of control (RPS6KA2 KD2 (human)): 32% | kinase still bound, per cent of control (TTK (human) [2]): 7.4% | kinase still bound, per cent of control (PLK3 (human)): 5.8%
SMILES: CCN(CC)C1CCN(c2ccc(Nc3ncc4c(n3)N3CCCC3C=CN4C)c(OC(C)C)c2)CC1 (stereo not drawn)
